The values below are quoted from earlier work in patent US20100168247A1, “SOLID COMPOSITES OF A CALCIUM RECEPTOR-ACTIVE COMPOUND” (TEVA PHARMACEUTICAL INDUSTRIES LTD., priority 2006, published 2010).

The structures appear in SMILES notation.

With `C[C@@H](NCCCc1cccc(C(F)(F)F)c1)c1cccc2ccccc12.Cl` [cinacalcet, (R)—N-[1-(1-naphthyl)ethyl]-3-[3-(trifluoromethyl)phenyl]propan-1-amine hydrochloride], the solubility entry (pH 1) is reported as “about 0.1 mg/ml”. Where the note is “pH 7”, the solubility in water result was “less than 1 μg/ml”.
